The source of these data is ChEMBL document CHEMBL1121631, “Quantitative structure-activity relationships by distance geometry: systematic analysis of dihydrofolate reductase inhibitors” (J Med Chem, 1980).

The subject of this assay is Dihydrofolate reductase (Enterococcus faecium).
Turning to `Nc1nc(N)c2cc(Sc3ccc(Cl)c(Cl)c3)ccc2n1`, the Delta G is -12.2 kcal.
`Nc1nc(O)c2c(Sc3ccc4ccccc4c3)cccc2n1` came in with a Delta G of -7.4 kcal.
The figure for `CCOC(=O)c1ccc(NCc2ccc3nc(N)nc(N)c3c2Cl)cc1` is -12.8 kcal; for `CCOC(=O)c1ccc(NCc2ccc3nc(N)nc(N)c3c2C)cc1` it is -12.3 kcal; for `Cc1c(NCc2ccc(C(=O)O)cc2)ccc2nc(N)nc(O)c12` it is -6.5 kcal.
The figure for `Nc1ncnc2ccc(Sc3ccc4ccccc4c3)cc12` is -6.5 kcal; for `CCOC(=O)c1ccc(NCc2ccc3nc(N)nc(N)c3c2)cc1` it is -11.4 kcal; for `O=c1[nH]c(=O)c2cc(Sc3ccc4ccccc4c3)ccc2[nH]1` it is -6.9 kcal.
The figure for `CCOC(=O)c1ccc(NCc2ccc3nc(N)nc(O)c3c2)cc1` is -10.6 kcal; for `Nc1nc(N)c2c(Cl)c(CNc3ccc(C(=O)O)cc3)ccc2n1` it is -12.3 kcal.
The molecule `Nc1nc(O)c2cc(CNc3ccc(C(=O)O)cc3)ccc2n1` had a Delta G of -8.8 kcal.
`Nc1nc(O)c2cc(S(=O)(=O)c3ccc4ccccc4c3)ccc2n1` gave a Delta G of -9.6 kcal.
In the case of `Nc1nc(S)c2cc(Sc3ccc4ccccc4c3)ccc2n1` it was -9.3 kcal.
The figure for `Nc1nc(N)c2c(/C=C\c3ccc4ccccc4c3)cccc2n1` is -11.1 kcal; for `CCCCOC(=O)c1ccc(NCc2ccc3nc(N)nc(N)c3c2Cl)cc1` it is -11.4 kcal; for `Nc1nc(S)c2cc(S(=O)(=O)c3ccc4ccccc4c3)ccc2n1` it is -8 kcal.
In the case of `Nc1nc(S)nc2ccc(Sc3ccc4ccccc4c3)cc12` it was -7.4 kcal.
Turning to `Nc1nc(N)c2cc(Sc3cccc(C(F)(F)F)c3)ccc2n1`, the Delta G was -13.4 kcal.
The figure for `Nc1nc(O)c2cc([S+]([O-])c3ccc4ccccc4c3)ccc2n1` (stereo not drawn) is -8.2 kcal; for `Nc1ncnc2ccc([S+]([O-])c3ccc4ccccc4c3)cc12` (stereo not drawn) it is -7.2 kcal; for `CCOC(=O)c1ccc(CNc2ccc3nc(N)nc(N)c3c2C)cc1` it is -13.1 kcal.
In the case of `Nc1nc(N)c2c(CSc3ccc(Cl)cc3)cccc2n1` it was -10.9 kcal; in that of `Oc1nc(S)nc2ccc(Sc3ccc4ccccc4c3)cc12`, -6.2 kcal.
The figure for `CCOC(=O)c1ccc(CNc2ccc3nc(N)nc(O)c3c2C)cc1` is -7.1 kcal; for `CCCCOC(=O)c1ccc(NCc2ccc3nc(N)nc(N)c3c2)cc1` it is -11.2 kcal.
For `Sc1nc(S)c2cc(Sc3ccc4ccccc4c3)ccc2n1`, the Delta G is -6 kcal.
As to `Nc1nc(N)c2c([S+]([O-])c3ccc(Cl)c(Cl)c3)cccc2n1` (stereo not drawn), the Delta G was -7.3 kcal.
The figure for `Nc1nc(N)c2c(S(=O)(=O)c3ccc4ccccc4c3)cccc2n1` is -6.5 kcal; for `Nc1nc(N)c2cc(CNc3ccc(C(=O)O)cc3)ccc2n1` it is -13 kcal.
In the case of `Nc1ncnc2ccc(S(=O)(=O)c3ccc4ccccc4c3)cc12` it was -5.8 kcal; in that of `Nc1nc(O)c2cc(NCc3ccc(C(=O)O)cc3)ccc2n1`, -7.2 kcal; in that of `CCCCOC(=O)c1ccc(NCc2ccc3nc(N)nc(N)c3c2C)cc1`, -12.1 kcal.
Molecule `Nc1nc(O)c2cc(Sc3ccc4ccccc4c3)ccc2n1` came in with a Delta G of -10.2 kcal.
With `Nc1nc(O)c2cc(S(=O)(=O)c3ccc(Cl)c(Cl)c3)ccc2n1`, the Delta G is -8.2 kcal.
The figure for `CCOC(=O)c1ccc(CNc2ccc3nc(N)nc(N)c3c2Cl)cc1` is -12.2 kcal; for `CCOC(=O)c1ccc(CNc2ccc3nc(N)nc(O)c3c2)cc1` it is -8.6 kcal; for `Nc1nc(N)c2c([S+]([O-])c3ccc4ccccc4c3)cccc2n1` (stereo not drawn) it is -6.9 kcal.
The figure for `Nc1nc(N)c2cc(S(=O)(=O)c3ccc4ccccc4c3)ccc2n1` is -12.4 kcal; for `Nc1nc(N)c2c(Sc3ccc(Cl)c(Cl)c3)cccc2n1` it is -9.9 kcal.
In the case of `Nc1nc(O)c2c(S(=O)(=O)c3ccc4ccccc4c3)cccc2n1` it was -9 kcal; in that of `Nc1nc(N)c2c(Sc3ccc4ccccc4c3)cccc2n1`, -10.9 kcal.
`Nc1nc(N)c2cc([S+]([O-])c3ccc4ccccc4c3)ccc2n1` (stereo not drawn) returned a Delta G of -12.8 kcal.
For the molecule `Nc1nc(N)c2c(S(=O)(=O)c3ccc(Cl)c(Cl)c3)cccc2n1`, the Delta G was -9 kcal.
The figure for `O=c1[nH]c(=S)c2cc(Sc3ccc4ccccc4c3)ccc2[nH]1` is -6.9 kcal; for `Nc1nc(O)nc2ccc(Sc3ccc4ccccc4c3)cc12` it is -6.9 kcal; for `Nc1nc(N)c2cc(S(=O)(=O)c3ccc(Cl)c(Cl)c3)ccc2n1` it is -13.4 kcal.
With `Nc1nc(N)c2c(/C=C/c3ccc4ccccc4c3)cccc2n1`, the Delta G was -10.7 kcal.
The figure for `Cc1c(CNc2ccc(C(=O)NC(CC(=O)O)C(=O)O)cc2)ccc2nc(N)nc(N)c12` (stereo not drawn) is -12.7 kcal.
The figure for `Nc1nc(N)c2c(CCc3ccc4ccccc4c3)cccc2n1` is -11.9 kcal; for `Nc1nc(O)c2cc(Sc3ccc(Cl)c(Cl)c3)ccc2n1` it is -9.1 kcal.
`CCOC(=O)c1ccc(CNc2ccc3nc(N)nc(O)c3c2Cl)cc1` came in with a Delta G of -9.3 kcal.
The figure for `CCOC(=O)c1ccc(CNc2ccc3nc(N)nc(N)c3c2)cc1` is -11 kcal; for `Cc1c(CNc2ccc(C(=O)O)cc2)ccc2nc(N)nc(N)c12` it is -11.8 kcal.
